Data set [1] deals with T1, DNA repair protein REV1 (Homo sapiens) (UniProt Q9UBZ9).
T1 sequence (whole entry): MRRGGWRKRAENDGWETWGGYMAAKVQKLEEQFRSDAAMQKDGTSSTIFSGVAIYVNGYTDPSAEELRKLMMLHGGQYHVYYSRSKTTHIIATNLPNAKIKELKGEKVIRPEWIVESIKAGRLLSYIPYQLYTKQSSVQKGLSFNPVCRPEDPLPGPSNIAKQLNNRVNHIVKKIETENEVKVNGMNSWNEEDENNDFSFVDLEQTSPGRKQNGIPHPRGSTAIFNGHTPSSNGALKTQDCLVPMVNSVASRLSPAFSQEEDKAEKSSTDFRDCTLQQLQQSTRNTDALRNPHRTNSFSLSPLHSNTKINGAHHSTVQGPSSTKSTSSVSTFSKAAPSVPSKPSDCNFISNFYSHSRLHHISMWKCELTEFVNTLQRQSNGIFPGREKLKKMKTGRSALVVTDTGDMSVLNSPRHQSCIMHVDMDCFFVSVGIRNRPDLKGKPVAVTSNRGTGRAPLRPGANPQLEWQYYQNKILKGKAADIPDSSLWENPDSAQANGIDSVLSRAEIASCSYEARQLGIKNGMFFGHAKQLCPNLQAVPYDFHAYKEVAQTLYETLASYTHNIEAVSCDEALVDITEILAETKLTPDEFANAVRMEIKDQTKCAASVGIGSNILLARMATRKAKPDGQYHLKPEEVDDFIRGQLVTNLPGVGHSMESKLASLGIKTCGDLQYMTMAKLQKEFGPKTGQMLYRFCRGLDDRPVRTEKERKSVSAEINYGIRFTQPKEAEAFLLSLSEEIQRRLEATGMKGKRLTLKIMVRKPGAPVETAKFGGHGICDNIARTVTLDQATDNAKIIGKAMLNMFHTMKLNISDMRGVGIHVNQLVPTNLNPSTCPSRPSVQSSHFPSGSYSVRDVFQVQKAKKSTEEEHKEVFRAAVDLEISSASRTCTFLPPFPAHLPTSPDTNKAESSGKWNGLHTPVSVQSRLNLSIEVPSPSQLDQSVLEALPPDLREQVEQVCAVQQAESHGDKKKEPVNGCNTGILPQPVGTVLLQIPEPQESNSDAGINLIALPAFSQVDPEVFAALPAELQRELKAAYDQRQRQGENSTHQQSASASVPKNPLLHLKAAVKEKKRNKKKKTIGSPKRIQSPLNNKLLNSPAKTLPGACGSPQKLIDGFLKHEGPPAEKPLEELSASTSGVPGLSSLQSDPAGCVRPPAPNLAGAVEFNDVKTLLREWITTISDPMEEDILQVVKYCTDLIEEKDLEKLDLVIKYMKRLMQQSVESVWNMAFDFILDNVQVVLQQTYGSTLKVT
Kind of data set: Displacement of FAM-labelled polkappa-RIR peptide from recombinant human C-terminal Rev1 (1158 to 1251 residues) expressed in Escherichia coli BL21(DE3) at 10 uM after 1 hr by fluorescence polarization assay relative to control. A general note: Fluorescence polarisation rises when a labelled molecule tumbles more slowly, as on binding a larger partner.

For a further data set, the target named is T2, DNA repair protein REV1 (Homo sapiens, UniProt Q9UBZ9).
T2 sequence (Q9UBZ9 whole entry): T1 sequence (whole entry)
In words: Displacement of FAM-labelled polkappa-RIR peptide from recombinant human C-terminal Rev1 (1158 to 1251 residues) expressed in Escherichia coli BL21(DE3) after 1 hr by fluorescence polarization assay.

Data set [2] is described as follows: Growth inhibition of cisplatin-resistant human U2OS cells after 72 hrs by MTS assay. Type of data set: cell-based. A general note: Tetrazolium dyes change colour on reduction, which living cells bring about.
The subject of data set [3] is U2OS. Kind of data set: Potentiation of cisplatin-induced cytotoxicity in cisplatin-resistant human U2OS cells assessed as cisplatin GI50 at 50 uM after 72 hrs by MTS assay (reference value: 23.9 +/- 1.9 uM). Type of data set: functional.
For data set [4], the system named is U2OS. Kind of data set: Potentiation of cisplatin-induced cytotoxicity in cisplatin-resistant human U2OS cells assessed as cisplatin GI50 at 25 uM after 72 hrs by MTS assay (reference value: 23.9 +/- 1.9 uM). In kind it is functional.
The nature of data set [5]: Solubility of the compound in pH 7.4 phosphate buffered saline.
Data set [6] is described as follows: Solubility of the compound in pH 4 phosphate buffered saline.
Data set [7] is described as follows: Permeability of the compound by PAMPA. In kind it is ADME. Background: PAMPA measures passive passage across an artificial lipid membrane.
Data set [8] is described as follows: Stability of the compound in pH 7.4 phosphate buffered saline assessed as parent compound remaining at 5 uM. Type of data set: physicochemical. As to conditions: read-out: Stability.
The nature of data set [9]: Intrinsic clearance in human liver microsomes at 1 uM. In kind it is ADME, microsome.
Data set [10] can be described thus: Ratio of solubility in pH 7.4 phosphate buffered saline to pH 4 phosphate buffered saline. Conditions: buffer. Type of data set: physicochemical.
Data set [11] in a line: Drug metabolism in human liver microsomes assessed as oxidation at 10 uM after 30 to 60 mins by LC-MS/MS analysis. Type of data set: ADME, microsome.
Data set [12] in a line: Drug metabolism in human liver microsomes assessed as oxidation and dehydrogenation at 10 uM after 30 to 60 mins by LC-MS/MS analysis. In kind it is ADME, microsome.
Data set [13] can be described thus: Drug metabolism in human liver microsomes assessed as dehydrogenation at 10 uM after 30 to 60 mins by LC-MS/MS analysis. Type of data set: ADME, microsome.
Data set [14] in a line: Drug metabolism in human liver microsomes assessed as demethylation by measuring 2-(1-acetylpiperidine-4-carboxamido)-5-propylthiophene-3-carboxylic acid formation at 10 uM after 30 to 60 mins by LC-MS/MS analysis. In kind it is ADME, microsome.
Data set [15] in a line: Drug metabolism in human liver microsomes assessed as hydrolysis by measuring methyl 2-(piperidine-4-carboxamido)-5-propylthiophene-3-carboxylate formation at 10 uM after 30 to 60 mins by LC-MS/MS analysis. In kind it is ADME, microsome.

Values after ≈ are worked out from the molar mass of the structure shown. Some results are limits rather than exact numbers.

Usually inhibition stands for the relative decrease from the control value, in per cent. For orientation: IC50 means the midpoint of a concentration-inhibition curve. By Kd is commonly meant the free concentration of one partner at which half of the binding sites on the other are occupied at equilibrium, for simple one-to-one binding. The term Ki denotes a measure of affinity in units of concentration, obtained from inhibition or displacement. A word on the GI50: it is the concentration at which growth is held to half of that of the control. Broadly, the solubility is how much of the substance goes into solution per volume. As for `CCCc1cc(C(=O)OC)c(NC(=O)C2CCN(C(C)=O)CC2)s1`, in [1], the inhibition is over 85%. Also, on DNA repair protein REV1, the IC50 stood at 4.1 µM. The Kd at DNA repair protein REV1 was found to be 3.5 µM. Besides, the Ki at DNA repair protein REV1 turned out to be 3.6 µM. The compound further showed a GI50 at 72 h in [2] of over 100 µM. The GI50 was found to be 19.6 µM in the data set with U2OS [3] and 12.6 µM with U2OS [4]. Also, the solubility in [5] was 63.3 µM (≈ 22.3 µg/mL); in [6], 21.1 µM (≈ 7.44 µg/mL). The “log(permeability)” value in [7] is on record as -4.5. In addition, in data set [8], the remaining at 5 µM was 95%. Further, in [9], the CLH was determined as 18.8 µL/min/mg. Also, the Ratio in data set [10] worked out at 3. The Drug metabolism entry in [11], in data set [12], in data set [13], in data set [14] and in data set [15] was “Metabolite_Detected” each time.
